Laboratory results: patent US20140272065A1, “ORGANIC COMPOUNDS” (Givaudan S.A., priority 2011, published 2014)

Legend:
[1] = Flavourist tasting: umami and salt intensity of solution B versus reference solution A; type: in vivo; settings: scale -3 (much lower than base) to 3 (much higher), average of 4 flavourists
Description: The samples were tasted by a small group of flavourists (2 male, 2 female, aged between 30 and 60). The intensity of the umami and salt taste of solution B was compared with that of the reference (solution A) and rated according to the following intensity scale: […]

[2] = background statement, cited from earlier work; for umami taste: aspartic acid at concentrations comparable to MSG
[3] = Flavourist tasting: enhancement effect on NaCl, MSG and ribonucleotides; type: in vivo; settings: effect marked between 0 and 10
Method: Six solutions were prepared: • A a solution of 0.5% NaCl • B a solution of 0.5% NaCl and 0.03% MSG • C a solution of 0.5% NaCl and 0.015% ribonucleotides • D a solution of 0.5% NaCl and 10-50 ppm Example 1 compound • E a solution of 0.5% NaCl and 0.03% MSG and 10-50 ppm Example 1 compound • F a solution of 0.5% NaCl and 0.015% ribonucleotides and 10-50 ppm Example 1 compound The samples were tasted by a group of 5-10 flavourists aged between 30 and 60. The taste of solution D is compared with that of A to determine the enhancement effect of Example 1 compound on NaCl. Similarly, solution E is compared with solution B and solution F with solution C to determine the enhancement effect of Example 1 compound on MSG and ribonucleotides respectively. The effect is marked between 0 and 10, the greater the value the greater the effect.

[4] = Flavourist comparison of test bouillon with reference bouillon; type: in vivo; settings: 200 ppm in bouillon; 4 flavourists
Method: A bouillon mix was prepared from 155.0 g of sodium chloride, 157.0 g of dextrose monohydrate (ex Tapioca), 0.2 g of celery oleoresin, 0.3 g of oleoresin turmeric Vegex, 0.2 g of oleoresin coriander seed, 444.8 g maltodextrin 5-8 DE, 40.0 g vegetable oil soya bean refined, 30.0 g yeast standard light, 4.0 g of onion powder, 4.0 g of garlic powder, 0.5 g of white pepper and 164.0 g of potato starch.
32 g of the well-mixed ingredients was added to 1 L of boiling water and stirred until completely dissolved.

[5] = Flavourist comparison of test white sauce with reference white sauce; type: in vivo; settings: 4 flavourists
Method: A white sauce mix was prepared from 380 g of modified starch Prejel, 200 g of whey powder Esprion 300, 200 g of fat powder (ex DMV), 115 g of sodium chloride, 85.3 g of maltodextrin 14, 3 g of onion powder, 0.2 g of curcuma extract powder (ex turmeric), 1.5 g of white pepper and 15 g of probase high impact.
80 g of the well-mixed ingredients was added to 1 L of boiling water and stirred well.

[6] = Flavourist comparison of test Béchamel sauce with cheese with reference sauce; type: in vivo; settings: 4 flavourists
Method: A Béchamel sauce with cheese was prepared from 70 g of butter, 50 g of flower, 1000 g of milk, 5 g of sodium chloride, 0.3 g of MSG, 0.15 g of nutmeg powder, 0.25 g of black pepper and 80 g of cheese powder. A blanc roux was prepared from the butter and flower before adding the other ingredients.

[7] = 10 ppm in 0.5% NaCl and 0.03% MSG
[8] = 20 ppm in 0.5% NaCl and 0.03% MSG

## Cl.NC(CC(C(=O)O)c1ccccc1)C(=O)O (centres unmarked) [2-amino-4-phenylpentanedioic acid, HCl, 2-amino-4-phenylpentanedioic Acid, HCl]
[1]; [7]
  Intensity Taste Salt (NaCl): 0.67
  Intensity Taste Umami: 0.00

## CC(=O)[O-].[Na+] [Sodium acetate]
[2]
  taste of salts compared with sodium chloride: hardly any taste

## NC(CC(C(=O)O)C(=O)O)C(=O)O (racemic) [gamma-carboxy-DL-glutamic acid, Gamma-Carboxy-DL-Glutamic Acid]
[3]; 10 ppm in 0.5% NaCl (solution D versus A, reference 0.0)
  NaCl Taste: 2.0
[3]; 10 ppm in 0.5% NaCl and 0.015% ribonucleotides (solution F versus C, reference 5.0)
  Ribo taste: 5.5
[3]; 10 ppm in 0.5% NaCl and 0.03% MSG (solution E versus B, reference 5.0)
  MSG taste: 5.5
[4]
  taste of test bouillon compared with reference bouillon: more umami, slightly more bitter, had more an ionic effect and salivating aftertaste than the reference bouillon
[5]; 250 ppm in white sauce
  taste of test white sauce compared with reference white sauce: more umami, more metallic, fuller, more long-lasting and slightly more salivating than the reference white sauce
[6]; 350 ppm in Béchamel sauce with cheese
  taste of test Béchamel sauce with cheese compared with reference: more metallic, more ionic, more long-lasting and had more salivating effect than the reference Béchamel sauce
[1]; [7]
  Intensity Taste Salt (NaCl): 0.67
  Intensity Taste Umami: 0.67

## CC(CC(N)C(=O)O)C(=O)O (centres unmarked) [2-amino-4-methylpentanedioic acid, 2-amino-4-methylpentanedioic Acid]
[1]; [8]
  Intensity Taste Salt (NaCl): 1.00
  Intensity Taste Umami: 1.25

## [Cl][Pb][Cl] [Lead chloride]
[2]
  taste of salts compared with sodium chloride: tasting sweet

## N[C@@H](CC(=O)O)C(=O)O [aspartic acid]
[2]
  umami taste: hardly any umami taste

## O=C([O-])[C@H](O)[C@@H](O)[C@H](O)[C@H](O)CO.[Na+] [sodium gluconate]
[2]
  taste of salts compared with sodium chloride: hardly any taste

## N[C@@H](CCC(=O)O)C(=O)[O-].[Na+] [MSG, monosodium glutamate]
[2]
  umami taste: highly potent umami tastant

## NC(CC(O)C(=O)O)C(=O)O (centres unmarked) [4-hydroxyglutamic acid, 4-hydroxyglutamic Acid]
[3]; 50 ppm in 0.5% NaCl (solution D versus A, reference 0.0)
  NaCl Taste: 1.7
[3]; 50 ppm in 0.5% NaCl and 0.015% ribonucleotides (solution F versus C, reference 5.0)
  Ribo taste: 7.0
[3]; 50 ppm in 0.5% NaCl and 0.03% MSG (solution E versus B, reference 5.0)
  MSG taste: 5.7
[4]
  taste of test bouillon compared with reference bouillon: had an enhanced body of salt and was more salivating and more savoury-lingering than the reference bouillon
[5]; 300 ppm in white sauce
  taste of test white sauce compared with reference white sauce: had an enhanced body of salt and was more salivating and umami-like than the reference white sauce
[6]; 400 ppm in Béchamel sauce with cheese
  taste of test Béchamel sauce with cheese compared with reference: had more body, more mouthfullness and was creamier than the reference Béchamel sauce
[1]; [7]
  Intensity Taste Salt (NaCl): 0.50
  Intensity Taste Umami: 0.50

## [Cl-].[K+] [Potassium chloride]
[2]
  taste of salts compared with sodium chloride: somewhat salty but clearly more bitter
